In general, IC50 refers to the concentration that inhibits the measured activity by half. A word on the GI50: it is the concentration giving 50% growth inhibition.

The test system of one experiment is Cal33 cells. The experiment in a line: Cal33 growth inhibition. The class given is cell-based. To be noted: for GI50: Table 5, * average of 2 experiments.
Another experiment deals with STAT3. The experiment in a line: HCS STAT3 assay. The experiment is classed as cell-based.
[1] abbreviates: Homo sapiens, CAL-33, Table 1, read-out: Growth Inhibition Cal33 (mean IC50).
[2] abbreviates: Table 2, read-out: Cal33 (IC50).
Where [3] appears, read: Table 2, read-out: STAT3 (IC50).
The mark [4] stands for this setting: Table 1, read-out: STAT3 (mean IC50).

Several values for one entry are separate records, joined by “and”; a condition that tells them apart may be missing. Equal values may be shown once. Read-outs that look alike come from different tables or passages of the source.

Turning to `COc1ccc(C2=Nn3c(nnc3-c3[nH]nc4c3CCC4)SC2)cc1`, the IC50 in the experiment with Cal33 cells (setting [1]) turned out to be 0.15 µM. As to `CC1Sc2nnc(-c3cc(-c4ccc(F)cc4)n[nH]3)n2N=C1c1ccccc1` (racemic) [compound 10135], the IC50 is 33.4 µM in the experiment on Cal33 cells (setting [2]) and 3.8 µM in the experiment on STAT3 (setting [3]).

As to `CC1Sc2nnc(-c3[nH]nc4c3CCC4)n2N=C1c1ccccc1` (racemic) [compound 10173], the half-maximal inhibitory concentration (IC50) with Cal33 cells (setting [2]) was determined as 41.8 µM; in the experiment with STAT3 (setting [3]), 18.2 µM. The matching figures for `CC1Sc2nnc(-c3cc(-c4ccc(Cl)cc4)n[nH]3)n2N=C1c1ccccc1` (racemic) [compound 10174]: 35.5 µM and 5.7 µM.

Take `CC1Sc2nnc(-c3[nH]nc4c3CCCC4)n2N=C1c1ccccc1` (racemic) [compound 10175]: the concentration for half-maximal inhibition (IC50) amounted to 40.2 µM in the experiment with Cal33 cells (setting [2]) and 22.4 µM in the experiment with STAT3 (setting [3]). Taken in the same sequence, the figures for `COc1ccc(C2=Nn3c(nnc3-c3cc(-c4ccc(F)cc4)n[nH]3)SC2C)cc1` (racemic) [compound 10204] were 33 µM and 4.2 µM.

For `COc1ccc(C2=Nn3c(nnc3-c3cc(-c4ccc(Cl)cc4)n[nH]3)SC2C)cc1` (racemic) [compound 10205], the half-inhibitory concentration (IC50) in the experiment with Cal33 cells (setting [2]) is 2.1 µM and 2 µM. Consider `CC1Sc2nnc(-c3[nH]nc4c3CCC4)n2N=C1c1ccc(F)cc1` (racemic) [compound 10282], for which the 50% inhibitory concentration (IC50) is 31.3 µM in the experiment on Cal33 cells (setting [2]) and 27.7 µM with STAT3 (setting [3]). On to `c1ccc(C2=Nn3c(nnc3-c3[nH]nc4c3CCC4)SC2c2ccccc2)cc1` (racemic) [compound 10298], for which the results for the IC50 in the experiment on Cal33 cells (setting [2]) and with STAT3 (setting [3]) were 1.1 µM and 26.5 µM, respectively. Take `CC(C)C1Sc2nnc(-c3[nH]nc4c3CCC4)n2N=C1c1ccc(Cl)c(Cl)c1` (racemic) [compound 10299]: the half-maximal inhibitory concentration (IC50) with Cal33 cells (setting [2]) was 8.2 µM; with STAT3 (FIG. 3, read-out: STAT3 potency (IC50)), less than 10 µM; in the experiment with STAT3 (setting [3]), 4.4 µM. Turning to `CC(C)CC1Sc2nnc(-c3[nH]nc4c3CCC4)n2N=C1c1ccc(Cl)c(Cl)c1` (racemic) [compound 10304], the results for the IC50 with Cal33 cells (setting [2]) and in the experiment with STAT3 (setting [3]) were 3.5 µM and 27.1 µM, respectively. For the compound `COc1ccc(C2=Nn3c(nnc3-c3cc(-c4ccc(Cl)cc4)n[nH]3)SC2C)cc1` (stereo not drawn) [Cmpd 24], growth with Cal33 cells was halved (GI50) at 2.2 ± 0.3 µM. Same read-out and setting: under `COc1ccc(C2=Nn3c(nnc3-c3cc(-c4ccccc4)n[nH]3)SC2CCN)cc1` (stereo not drawn) [Cmpd 30] stands 2.5 µM; under `COCCC1Sc2nnc(-c3cc(-c4ccccc4)n[nH]3)n2N=C1c1ccc(OC)cc1` (stereo not drawn) [Cmpd 31], 0.04 µM.

With `COc1ccc(C2=Nn3c(nnc3-c3[nH]nc4c3CCCC4)SC2)cc1` [UPCDC10073], the IC50 worked out at 0.2 µM in the experiment on Cal33 cells (setting [1]) and 17 µM in the experiment with STAT3 (setting [4]). Consider `Clc1ccc(C2=Nn3c(nnc3-c3[nH]nc4c3CCCC4)SC2)cc1` [UPCDC10084], for which the 50% inhibitory concentration (IC50) in the experiment with Cal33 cells (setting [1]) is 0.6 µM; with STAT3 (setting [4]), 21.3 µM. Regarding `COc1ccc(C2=Nn3c(nnc3-c3[nH]nc4c3CCC4)SC2C(C)C)cc1` (stereo not drawn) [UPCDC10318], the IC50 in the experiment with Cal33 cells (setting [1]) was 0.4 µM; in the experiment on Cal33 cells (Homo sapiens, CAL-33, Table 2, read-out: Cal33 (IC50)), 0.4 µM. As to `Clc1ccc(C2=Nn3c(nnc3-c3[nH]nc4c3CCC4)SC2)cc1` [UPCDC87346005], in the experiment on Cal33 cells (setting [1]), the IC50 was determined as 0.77 µM. In the case of `CC1Sc2nnc(-c3[nH]nc4c3CCC4)n2N=C1c1ccc(Cl)c(Cl)c1` (stereo not drawn) [compound 10263, 6-(3,4-Dichlorophenyl)-7-methyl-3-(2,4,5,6-tetrahydrocyclopenta[c]pyrazol-3-yl)-7H-[1,2,4]triazolo[3,4-b][1,3,4]thiadiazine], the IC50 in the experiment with STAT3 (setting [3]) is 8.5 µM and 11 µM. With `COc1ccc(C2=Nn3c(nnc3-c3cc(-c4ccccc4)n[nH]3)SC2CC(C)C)cc1` (stereo not drawn) [compound 10307], the concentration for half-maximal inhibition (IC50) in the experiment with Cal33 cells (setting [2]) is 11.5 µM. In the case of `Clc1ccc(C2=Nn3c(nnc3-c3cc(-c4ccccc4)n[nH]3)SC2Cc2ccccc2)cc1Cl` (stereo not drawn) [compound 10309], the concentration for half-maximal inhibition (IC50) with STAT3 (setting [3]) is 22.6 µM. The same measure, in the same setting: under `COc1ccc(C2=Nn3c(nnc3-c3cc(-c4ccccc4)n[nH]3)SC2Cc2ccccc2)cc1` (stereo not drawn) [compound 10321] stands 5.8 µM. For `COc1ccc(C2=Nn3c(nnc3-c3cc(-c4ccccc4)n[nH]3)SC2CCN)cc1` (stereo not drawn) [compound 10371], the concentration for half-maximal inhibition (IC50) with Cal33 cells (setting [2]) stood at 24.1 µM.

Source of the values: patent US10618914B2 (UNIVERSITY OF PITTSBURGH—OF THE COMMONWEALTH SYSTEM OF …, priority 2015, dated 2020).
